The text below walks through data of patent publication US20110015119A1, “NOVEL SEMI-SYNTHETIC GLYCOPEPTIDES AS ANTIBACTERIAL AGENTS” (LEAD THERAPEUTICS, INC., priority 2009, published 2011).

Values after ≈ are worked out from the molar mass of the structure shown. Like-named read-outs stand apart in the source and are kept apart here.

Format in all cases: cell-based
Experiment [1] deals with Streptococcus pneumoniae 1195 (ATCC 49619). Kind of experiment: MIC by broth microdilution, SPNE 1195. As for the experimental part:
(§1) Antibacterial activity in vitro is investigated by broth microdilution method in Meuller-Hinton broth as recommended by NCCLS. All strains tested are clinical isolates either sensitive or resistant to natural glycopeptides. MIC values were determined using the CLSI-recommended broth microdilution procedure (Clinical and Laboratory Standards Institute, Methods for Dilution Antimicrobial Susceptibility Tests for Bacteria That Grow Aerobically; Approved Standard-Seventh Edition.). Automated liquid handlers (Multidrop 384, Labsystems, Helsinki, Finland; Biomek 2000 and Multimek 96, Beckman Coulter, Fullerton Calif.) were used to conduct serial dilutions and liquid transfers. The MIC value for vancomycin is given for comparison. The abbreviations for organisms tested are as follow: SA 100—Staphylococcus aureus 100 (ATCC 29213); SA 757—Staphylococcus aureus 757 (MRSA); SA 2012—Staphylococcus aureus 2012 (VISA); SE 835—Staphylococcus epidermidis 835; SE 831—Staphylococcus epidermidis 831 (MRSE); EFc 101—Enterococcus faecalis 101 (ATCC 29212); EFc 848—Enterococcus faecalis 848 (VRE, Van A); EFcm 800—Enterococcus faecium 800; EFcm 752—Enterococcus faecium 752 (VRE, Van A); SPNE 1195—Streptococcus pneumoniae 1195 (ATCC 49619); SPY 712—Streptococcus pyogenes 712.
In general terms: In broth dilution the organism is exposed to a series of concentrations in liquid medium.

For experiment [2], the system named is Staphylococcus aureus 757 (MRSA). The experiment is described as follows: MIC by broth microdilution, SA 757. To be noted: read-out: MIC SA 757. As for the experimental part:
as §1

Experiment [3] deals with Streptococcus pyogenes 712. Kind of experiment: MIC by broth microdilution, SPY 712. As for the experimental part:
as §1

The test system of the next experiment is Enterococcus faecium 800. The experiment is described as follows: MIC by broth microdilution, EFcm 800. As for the experimental part: as §1
The subject of experiment [4] is Staphylococcus aureus 2012 (VISA). Kind of experiment: MIC by broth microdilution, SA 2012. To be noted: class symbols. As for the experimental part:
as §1

Experiment [5] concerns Enterococcus faecium 752 (VRE, Van A). Kind of experiment: MIC by broth microdilution, EFcm 752. To be noted: class symbols. As for the experimental part:
as §1

The subject of experiment [6] is Staphylococcus epidermidis 831 (MRSE). Kind of experiment: MIC by broth microdilution, SE 831. To be noted: read-out: MIC SE 831. As for the experimental part: as §1
Experiment [7] concerns Enterococcus faecalis 848 (VRE, Van A). The experiment is described as follows: MIC by broth microdilution, EFc 848. The conditions noted are these: class symbols. As for the experimental part: as §1
Experiment [8] has as its system Staphylococcus epidermidis 835. Kind of experiment: MIC by broth microdilution, SE 835. As for the experimental part: as §1
Experiment [9] concerns Staphylococcus aureus 100 (ATCC 29213). Kind of experiment: MIC by broth microdilution, SA 100. As for the experimental part: as §1
Experiment [10] has as its system Enterococcus faecalis 101 (ATCC 29212). The experiment is described as follows: MIC by broth microdilution, EFc 101. To be noted: class symbols. As for the experimental part: as §1
Where [11] appears, read: Streptococcus pneumoniae, ATCC49619, read-out: MIC S PNE 1195.
[12] abbreviates: Streptococcus pyogenes, 712, read-out: MIC S PYO 712.
[13] abbreviates: Enterococcus faecium, 800, read-out: MIC E FCM 800.
The mark [14] stands for this setting: Staphylococcus aureus, VISA, read-out: MIC SA 2012, Staphylococcus aureus 2012 (VISA).
The mark [15] stands for this setting: Enterococcus faecium, VRE, read-out: MIC E FCM 752, Enterococcus faecium 752 (VRE, Van A).
The mark [16] stands for this setting: Staphylococcus epidermidis, MRSE.
Setting [17] is: Enterococcus faecalis, VRE, read-out: MIC E FC 848, Enterococcus faecalis 848 (VRE, Van A).
Where [18] appears, read: Staphylococcus epidermidis, 835, read-out: MIC SE 835.
Where [19] appears, read: Staphylococcus aureus, ATCC29213, read-out: MIC SA 100.
The mark [20] stands for this setting: Enterococcus faecalis, ATCC29212, read-out: MIC E FC 101, Enterococcus faecalis 101 (ATCC 29212).
Where [21] appears, read: ATCC49619, Streptococcus pneumoniae 1195 (ATCC 49619), class symbols, read-out: MIC S PNE 1195.
Setting [22] is: Staphylococcus aureus 757 (MRSA), class symbols.
[23] abbreviates: Streptococcus pyogenes 712, class symbols, read-out: MIC S PYO 712.
[24] abbreviates: Enterococcus faecium 800, class symbols, read-out: MIC E FCM 800.
Where [25] appears, read: Staphylococcus aureus 2012 (VISA), read-out: MIC SA 2012.
Setting [26] is: Enterococcus faecium 752 (VRE, Van A), read-out: MIC E FCM 752.
The mark [27] stands for this setting: Staphylococcus epidermidis 831 (MRSE), class symbols.
Setting [28] is: Enterococcus faecalis 848 (VRE, Van A), read-out: MIC E FC 848.
[29] abbreviates: Staphylococcus epidermidis 835, class symbols, read-out: MIC SE 835.
Where [30] appears, read: ATCC29213, Staphylococcus aureus 100 (ATCC 29213), class symbols, read-out: MIC SA 100.
Setting [31] is: ATCC29212, Enterococcus faecalis 101 (ATCC 29212), read-out: MIC E FC 101.

Take `CCCCCCCOc1ccc(S(=O)(=O)NCCCCCCNC(=O)Oc2cc(O)c3c(c2)[C@@H](C(=O)O)NC(=O)[C@H]2NC(=O)[C@H](NC(=O)[C@@H]4NC(=O)[C@H](CC(N)=O)NC(=O)[C@H](NC(=O)[C@@H](CC(C)C)NC)[C@H](O)c5ccc(c(Cl)c5)Oc5cc4cc(c5O[C@@H]4O[C@H](CO)[C@@H](O)[C@H](O)[C@H]4O[C@H]4C[C@](C)(N)[C@H](O)[C@H](C)O4)Oc4ccc(cc4Cl)[C@H]2O)c2ccc(O)c-3c2)cc1` (atropisomer, axis not shown) [Compound 355]: the minimum inhibitory concentration (MIC) (usually the lowest concentration that inhibits growth of the organism) in [1] (setting [11]) fell in the range of 0.01 to 0.5 µg/mL (≈ 0.00542 to 0.271 µM); in [2] (Staphylococcus aureus, MRSA) it was 0.01 to 0.5 µg/mL (≈ 0.00542 to 0.271 µM); in [3] (setting [12]) it was 0.01 to 0.5 µg/mL (≈ 0.00542 to 0.271 µM); in the experiment with Enterococcus faecium 800 (setting [13]), 0.01 to 0.5 µg/mL (≈ 0.00542 to 0.271 µM); in experiment [4] (setting [14]) it was 0.5 to 1 µg/mL (≈ 0.271 to 0.542 µM); in experiment [5] (setting [15]), 0.01 to 0.5 µg/mL (≈ 0.00542 to 0.271 µM). Besides, the minimum inhibitory concentration (MIC) in experiment [6] (setting [16]) is 0.01 to 0.5 µg/mL (≈ 0.00542 to 0.271 µM); in [7] (setting [17]) it was 1 to 2 µg/mL (≈ 0.542 to 1.08 µM); in [8] (setting [18]) it was 0.01 to 0.5 µg/mL (≈ 0.00542 to 0.271 µM); in experiment [9] (setting [19]), 0.01 to 0.5 µg/mL (≈ 0.00542 to 0.271 µM); in [10] (setting [20]), 0.01 to 0.5 µg/mL (≈ 0.00542 to 0.271 µM).

As to `CCCCCOc1ccc(CCNC(=O)Oc2cc(O)c3c(c2)[C@@H](C(=O)O)NC(=O)[C@H]2NC(=O)[C@H](NC(=O)[C@@H]4NC(=O)[C@H](CC(N)=O)NC(=O)[C@H](NC(=O)[C@@H](CC(C)C)NC)[C@H](O)c5ccc(c(Cl)c5)Oc5cc4cc(c5O[C@@H]4O[C@H](CO)[C@@H](O)[C@H](O)[C@H]4O[C@H]4C[C@](C)(N)[C@H](O)[C@H](C)O4)Oc4ccc(cc4Cl)[C@H]2O)c2ccc(O)c-3c2)cc1` (atropisomer, axis not shown) [Compound 356], the MIC in experiment [1] (setting [11]) lay within 0.01 to 0.5 µg/mL (≈ 0.00594 to 0.297 µM); in experiment [2] (Staphylococcus aureus, MRSA) it was 0.01 to 0.5 µg/mL (≈ 0.00594 to 0.297 µM); in experiment [3] (setting [12]), 0.01 to 0.5 µg/mL (≈ 0.00594 to 0.297 µM); in the experiment with Enterococcus faecium 800 (setting [13]), 0.01 to 0.5 µg/mL (≈ 0.00594 to 0.297 µM); in experiment [4] (setting [14]) it was 1 to 2 µg/mL (≈ 0.594 to 1.19 µM); in [5] (setting [15]), 4 to 8 µg/mL (≈ 2.38 to 4.75 µM). In addition, the MIC in experiment [6] (setting [16]) is 0.01 to 0.5 µg/mL (≈ 0.00594 to 0.297 µM); in [7] (setting [17]), over 16 µg/mL; in experiment [8] (setting [18]), 0.01 to 0.5 µg/mL (≈ 0.00594 to 0.297 µM); in experiment [9] (setting [19]), 0.01 to 0.5 µg/mL (≈ 0.00594 to 0.297 µM); in [10] (setting [20]), 0.01 to 0.5 µg/mL (≈ 0.00594 to 0.297 µM).

For the compound `CCCCCOc1ccc(S(=O)(=O)NCCCCCCNCc2c(O)cc3c(c2O)-c2cc(ccc2O)[C@H]2NC(=O)[C@@H]4NC(=O)[C@H](CC(N)=O)NC(=O)[C@H](NC(=O)[C@@H](CC(C)C)NC)[C@H](O)c5ccc(c(Cl)c5)Oc5cc4cc(c5O[C@@H]4O[C@H](CO)[C@@H](O)[C@H](O)[C@H]4O[C@H]4C[C@](C)(NC(=O)[C@@H](C)N)[C@H](O)[C@H](C)O4)Oc4ccc(cc4Cl)[C@@H](O)[C@H](NC2=O)C(=O)N[C@@H]3C(=O)O)cc1` (atropisomer, axis not shown) [Compound 357], the MIC in experiment [1] (setting [21]) was in the range of 0.01 to 0.5 µg/mL (≈ 0.00533 to 0.267 µM); in experiment [2] (setting [22]) it was 0.01 to 0.5 µg/mL (≈ 0.00533 to 0.267 µM); in [3] (setting [23]) it was 0.01 to 0.5 µg/mL (≈ 0.00533 to 0.267 µM); in the experiment with Enterococcus faecium 800 (setting [24]), 0.01 to 0.5 µg/mL (≈ 0.00533 to 0.267 µM); in [4] (setting [25]), 0.01 to 0.5 µg/mL (≈ 0.00533 to 0.267 µM); in experiment [5] (setting [26]) it was 4 to 8 µg/mL (≈ 2.13 to 4.27 µM). In addition, the MIC in experiment [6] (setting [27]) is 0.01 to 0.5 µg/mL (≈ 0.00533 to 0.267 µM); in experiment [7] (setting [28]), over 16 µg/mL; in [8] (setting [29]) it was 0.01 to 0.5 µg/mL (≈ 0.00533 to 0.267 µM); in [9] (setting [30]) it was 0.01 to 0.5 µg/mL (≈ 0.00533 to 0.267 µM); in experiment [10] (setting [31]), 0.01 to 0.5 µg/mL (≈ 0.00533 to 0.267 µM).

`CCCCCCc1ccc(S(=O)(=O)NCCCCCCNCc2c(O)cc3c(c2O)-c2cc(ccc2O)[C@H]2NC(=O)[C@@H]4NC(=O)[C@H](CC(N)=O)NC(=O)[C@H](NC(=O)[C@@H](CC(C)C)NC)[C@H](O)c5ccc(c(Cl)c5)Oc5cc4cc(c5O[C@@H]4O[C@H](CO)[C@@H](O)[C@H](O)[C@H]4O[C@H]4C[C@](C)(NC(=O)CN)[C@H](O)[C@H](C)O4)Oc4ccc(cc4Cl)[C@@H](O)[C@H](NC2=O)C(=O)N[C@@H]3C(=O)O)cc1` (atropisomer, axis not shown) [Compound 362]: the minimal inhibitory concentration (MIC) in experiment [1] (setting [21]) lay in the range of 0.01 to 0.5 µg/mL (≈ 0.00538 to 0.269 µM); in [2] (setting [22]), 0.01 to 0.5 µg/mL (≈ 0.00538 to 0.269 µM); in [3] (setting [23]) it was 0.01 to 0.5 µg/mL (≈ 0.00538 to 0.269 µM); with Enterococcus faecium 800 (setting [24]), 0.01 to 0.5 µg/mL (≈ 0.00538 to 0.269 µM); in experiment [4] (setting [25]) it was 0.01 to 0.5 µg/mL (≈ 0.00538 to 0.269 µM); in [5] (setting [26]) it was 2 to 4 µg/mL (≈ 1.08 to 2.15 µM). Also, the MIC in experiment [6] (setting [27]) lay in the range of 0.01 to 0.5 µg/mL (≈ 0.00538 to 0.269 µM); in experiment [7] (setting [28]) it was 8 to 16 µg/mL (≈ 4.3 to 8.61 µM); in [8] (setting [29]), 0.01 to 0.5 µg/mL (≈ 0.00538 to 0.269 µM); in experiment [9] (setting [30]), 0.01 to 0.5 µg/mL (≈ 0.00538 to 0.269 µM); in [10] (setting [31]), 0.01 to 0.5 µg/mL (≈ 0.00538 to 0.269 µM).
